Read-outs that look alike come from different tables or passages of the source.

This assay addresses T1, human KISS-receptor (Homo sapiens, UniProt Q969F8).
T1 construct: expressed in transfected cells; host or cells: CHO-k1 cells that also express mitochondrially targeted aequorin, Gα16 and an NFAT-luciferase reporter
Nature of the assay: NFAT-regulated luciferase reporter gene assay in CHO-k1 cells, agonist activity. The format is cell-based. (In a reporter assay the amount or activity of a reporter protein is the signal.)

[1] abbreviates: pEC50 serum, presence of 20% human serum.
Setting [2] is: absence of human serum, read-out: pEC50 (converted).
[3] abbreviates: presence of 20% human serum, read-out: pEC50 serum (converted).

T1 sequence (Q969F8 whole entry): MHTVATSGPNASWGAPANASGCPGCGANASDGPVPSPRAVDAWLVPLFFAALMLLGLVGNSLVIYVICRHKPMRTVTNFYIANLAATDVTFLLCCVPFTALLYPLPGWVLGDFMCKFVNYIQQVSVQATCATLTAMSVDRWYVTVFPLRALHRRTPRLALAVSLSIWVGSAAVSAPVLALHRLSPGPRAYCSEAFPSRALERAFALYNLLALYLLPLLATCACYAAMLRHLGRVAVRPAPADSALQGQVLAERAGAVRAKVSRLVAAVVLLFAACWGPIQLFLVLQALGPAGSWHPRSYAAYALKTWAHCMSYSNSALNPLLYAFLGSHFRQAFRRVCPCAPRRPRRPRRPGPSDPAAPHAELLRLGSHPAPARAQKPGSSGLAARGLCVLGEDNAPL
Experimental: CHO-k1 cells were used that expressed the mitochondrially targeted aequorine and Gα16 (from Euroscreen, Brussels, Belgium), a Nuclear Factor of Activated T-cells-responsive element (NFAT) under the control of a promoter directing the expression of a firefly luciferase reporter gene (pNFAT-TALuc obtained from Clontech, Mountain View, Calif.), and the human GPR54-R Hygro(+)-hGPR54WT c4; MSD). These cells were cultured in Dulbecco's Modified Eagle Medium: Nutrient Mixture F-12 (DMEM/F12) (Invitrogen, Carlsbad, Calif.), supplemented with 10% (vol/vol) filtered bovine serum (Hyclone, Thermo Fisher Scientific, Waltham, Mass.), 100 U/ml penicillin G, 100 μg/ml streptomycin, 400 μg/ml Geneticin and 400 μg/ml Hygromycin (Invitrogen). […] Kisspeptin-10 was used as a standard. […] When the conjugates were tested in the presence of a final percentage of 20% human serum, 10 μl assay medium containing 60% human serum (Sigma-Aldrich, #H4522) was added to the wells. In the absence of human serum, 10 μl of assay medium was added. Cells were harvested and diluted to a concentration of 7.5E5 cells/ml in assay medium without 0.1% BSA. 10 μl of cell solution was added to the compound wells. After incubation for 4 hours in a humidified atmosphere at 5% CO2 and 37° C., the plate was left at room temperature for 30 minutes. Subsequently, 15 μl of Steadylite™ solution (PerkinElmer, Boston, Mass.) was added and the cells, protected from light, were allowed to lyse for 30 min at room temperature. Luminescence, indicated as relative luminescence units (RLU), was measured on an Envision Multilabel reader (PerkinElmer).

In the case of `CNC(=N)NCCC[C@H](NC(=O)[C@H](CC(C)C)NC(=O)NNC(=O)[C@H](Cc1ccccc1)NC(=O)[C@@H](NC(=O)[C@H](CC(N)=O)NC(=O)[C@H](Cc1c[nH]c2ccccc12)NC(=O)[C@H](CC(N)=O)NC(=O)[C@@H](Cc1ccc(O)cc1)NC(=O)CSCCC(=O)NCCOCCOCCOCCO[C@H]1[C@H](OC)[C@@H](OC)[C@@H](O[C@H]2[C@H](OC)[C@@H](OC)[C@H](O[C@H]3[C@H](OS(=O)(=O)O)[C@@H](OS(=O)(=O)O)[C@@H](O[C@H]4[C@H](OC)[C@@H](OC)[C@H](O[C@H]5[C@H](OS(=O)(=O)O)[C@@H](OS(=O)(=O)O)[C@@H](OC)O[C@@H]5COS(=O)(=O)O)O[C@H]4C(=O)O)O[C@@H]3COS(=O)(=O)O)O[C@@H]2C(=O)O)O[C@@H]1COS(=O)(=O)O)[C@@H](C)O)C(=O)N[C@@H](Cc1ccccc1)C(N)=O` [Conjugate C2], the EC50 by setting is: (pEC50, absence of human serum) 0.0776 nM; under setting [1], 9.12 nM.
Consider `CNC(=N)NCCC[C@H](NC(=O)[C@H](CC(C)C)NC(=O)NNC(=O)[C@H](Cc1ccccc1)NC(=O)[C@@H](NC(=O)[C@H](CC(N)=O)NC(=O)[C@H](Cc1c[nH]c2ccccc12)NC(=O)[C@H](CC(N)=O)NC(=O)[C@@H](Cc1ccc(O)cc1)Nc1c(NCCOCCOCCOCCOCC(=O)NCCOCCOCCOCCO[C@H]2[C@H](OC)[C@@H](OC)[C@@H](O[C@H]3[C@H](OC)[C@@H](OC)[C@H](O[C@H]4[C@H](OS(=O)(=O)O)[C@@H](OS(=O)(=O)O)[C@@H](O[C@H]5[C@H](OC)[C@@H](OC)[C@H](O[C@H]6[C@H](OS(=O)(=O)O)[C@@H](OS(=O)(=O)O)[C@@H](OC)O[C@@H]6COS(=O)(=O)O)O[C@H]5C(=O)O)O[C@@H]4COS(=O)(=O)O)O[C@@H]3C(=O)O)O[C@@H]2COS(=O)(=O)O)c(=O)c1=O)[C@@H](C)O)C(=O)N[C@@H](Cc1ccccc1)C(N)=O` [Conjugate C3], for which the EC50 was 0.0776 nM under setting [2] and 6.31 nM under setting [3].
As to `CNC(=N)NCCC[C@H](NC(=O)[C@H](CC(C)C)NC(=O)NNC(=O)[C@H](Cc1ccccc1)NC(=O)[C@@H](NC(=O)[C@H](CC(N)=O)NC(=O)[C@H](Cc1c[nH]c2ccccc12)NC(=O)[C@H](CC(N)=O)NC(=O)[C@@H](Cc1ccc(O)cc1)NC(=O)CCCCn1cc(CCC(=O)NCCOCCOCCOCCOCC(=O)NCCOCCOCCOCCO[C@H]2[C@H](OC)[C@@H](OC)[C@@H](O[C@H]3[C@H](OC)[C@@H](OC)[C@H](O[C@H]4[C@H](OS(=O)(=O)O)[C@@H](OS(=O)(=O)O)[C@@H](O[C@H]5[C@H](OC)[C@@H](OC)[C@H](O[C@H]6[C@H](OS(=O)(=O)O)[C@@H](OS(=O)(=O)O)[C@@H](OC)O[C@@H]6COS(=O)(=O)O)O[C@H]5C(=O)O)O[C@@H]4COS(=O)(=O)O)O[C@@H]3C(=O)O)O[C@@H]2COS(=O)(=O)O)nn1)[C@@H](C)O)C(=O)N[C@@H](Cc1ccccc1)C(N)=O` [Conjugate C6], the EC50 by setting is: (pEC50, absence of human serum) 0.148 nM; under setting [1], 5.62 nM.
`CNC(=N)NCCC[C@H](NC(=O)[C@H](CC(C)C)NC(=O)NNC(=O)[C@H](Cc1ccccc1)NC(=O)[C@@H](NC(=O)[C@H](CC(N)=O)NC(=O)[C@H](Cc1c[nH]c2ccccc12)NC(=O)[C@H](CC(N)=O)NC(=O)[C@H](Cc1ccc(O)cc1)NC(=O)COCCOCCOCCOCCn1cc(CCC(=O)NCCOCCOCCOCCO[C@H]2[C@H](OC)[C@@H](OC)[C@@H](O[C@H]3[C@H](OC)[C@@H](OC)[C@H](O[C@H]4[C@H](OS(=O)(=O)O)[C@@H](OS(=O)(=O)O)[C@@H](O[C@H]5[C@H](OC)[C@@H](OC)[C@H](O[C@H]6[C@H](OS(=O)(=O)O)[C@@H](OS(=O)(=O)O)[C@@H](OC)O[C@@H]6COS(=O)(=O)O)O[C@H]5C(=O)O)O[C@@H]4COS(=O)(=O)O)O[C@@H]3C(=O)O)O[C@@H]2COS(=O)(=O)O)nn1)[C@@H](C)O)C(=O)N[C@@H](Cc1ccccc1)C(N)=O` [Conjugate C23]: the EC50 reads like this: under setting [2], 0.209 nM; under setting [3], 2.45 nM.

Source of the values: US9127038B2, “Kisspeptide-pentasaccharide conjugates” (Merck Sharp & Dohme Corp., priority 2011, dated 2015).
